Source: the supplement of paper PMC10307832

Assays:
Assay in all cases: relative viability (nuclei count vs DMSO), 5 days (fraction); higher = more cells survive
[1] = tested on: CAL-12T
Procedure, shortened: (§1)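 Values are medians from duplicate plates. Each reflects relative viability, defined as the nuclei count of treated wells over that of vehicle wells. Lung cancer cell lines in 1536-well plates were pin-tool dosed one day after seeding with one drug alone or with a fixed anchor-drug dose plus five library-drug doses (not always all listed) in √10 steps, then fixed, stained and imaged at 4× after 5 days.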

[2] = tested on: COR-L 105
Procedure, shortened: as §1

[3] = tested on: NCI-H1915
Procedure, shortened: as §1

[4] = tested on: HCC-827
Procedure, shortened: as §1

[5] = tested on: HCC-366
Procedure, shortened: as §1

[6] = tested on: NCI-H1437
Procedure, shortened: as §1

[7] = tested on: NCI-H460
Procedure, shortened: as §1

[8] = tested on: NCI-H1792
Procedure, shortened: as §1

[9] = tested on: HOP-62
Procedure, shortened: as §1

[10] = tested on: NCI-H23
Procedure, shortened: as §1

[11] = tested on: SK-LU-1
Procedure, shortened: as §1

[12] = tested on: NCI-H2009
Procedure, shortened: as §1

[13] = tested on: LCLC-103H
Procedure, shortened: as §1

[14] = tested on: A-427
Procedure, shortened: as §1

[15] = tested on: NCI-H2228
Procedure, shortened: as §1

[16] = tested on: NCI-H1755
Procedure, shortened: as §1

[17] = tested on: NCI-H727
Procedure, shortened: as §1

[18] = tested on: EMC-BAC-2
Procedure, shortened: as §1

[19] = tested on: HARA
Procedure, shortened: as §1

[20] = tested on: NCI-H1975
Procedure, shortened: as §1

[21] = tested on: NCI-H1355
Procedure, shortened: as §1

[22] = tested on: SW 1573
Procedure, shortened: as §1

## O=C(O)c1ccc(-c2c[nH]c3ncc(-c4ccccc4)cc23)cc1C1CCCC1 + CC(C)C[C@H](NC(=O)[C@H](Cc1ccccc1)NC(=O)c1cnccn1)B(O)O [Bortezomib] (partner 0.002 µM)
[1]; first compound 0.04 µM
  relative viability: 0.911
[1]; first compound 0.1265 µM
  relative viability: 1.17
[1]; first compound 0.4 µM
  relative viability: 0.883
[1]; first compound 1.265 µM
  relative viability: 0.792
[2]; first compound 0.04 µM
  relative viability: 0.775
[2]; first compound 0.1265 µM
  relative viability: 0.78
[2]; first compound 0.4 µM
  relative viability: 0.788
[2]; first compound 1.265 µM
  relative viability: 0.819
[3]; first compound 0.04 µM
  relative viability: 0.957
[3]; first compound 0.1265 µM
  relative viability: 0.949
[3]; first compound 0.4 µM
  relative viability: 0.957
[3]; first compound 1.265 µM
  relative viability: 0.789
[4]; first compound 0.04 µM
  relative viability: 0.982
[4]; first compound 0.1265 µM
  relative viability: 1.18
[4]; first compound 0.4 µM
  relative viability: 1.02
[4]; first compound 1.265 µM
  relative viability: 0.884
[5]; first compound 0.04 µM
  relative viability: 1.05
[5]; first compound 0.1265 µM
  relative viability: 1.12
[5]; first compound 0.4 µM
  relative viability: 1.03
[5]; first compound 1.265 µM
  relative viability: 1.06
[6]; first compound 0.04 µM
  relative viability: 0.523
[6]; first compound 0.1265 µM
  relative viability: 0.683
[6]; first compound 0.4 µM
  relative viability: 0.446
[6]; first compound 1.265 µM
  relative viability: 0.238
[7]; first compound 0.04 µM
  relative viability: 1.07
[7]; first compound 0.1265 µM
  relative viability: 1.4
[7]; first compound 0.4 µM
  relative viability: 0.999
[7]; first compound 1.265 µM
  relative viability: 0.939
[8]; first compound 0.04 µM
  relative viability: 0.933
[8]; first compound 0.1265 µM
  relative viability: 1.13
[8]; first compound 0.4 µM
  relative viability: 1.04
[8]; first compound 1.265 µM
  relative viability: 0.912
[9]; first compound 0.04 µM
  relative viability: 1.01
[9]; first compound 0.1265 µM
  relative viability: 0.725
[9]; first compound 0.4 µM
  relative viability: 0.93
[9]; first compound 1.265 µM
  relative viability: 0.886
[10]; first compound 0.04 µM
  relative viability: 1.05
[10]; first compound 0.1265 µM
  relative viability: 1.21
[10]; first compound 0.4 µM
  relative viability: 0.958
[10]; first compound 1.265 µM
  relative viability: 1.11
[11]; first compound 0.04 µM
  relative viability: 1.11
[11]; first compound 0.1265 µM
  relative viability: 1.17
[11]; first compound 0.4 µM
  relative viability: 1.15
[11]; first compound 1.265 µM
  relative viability: 0.693
[12]; first compound 0.04 µM
  relative viability: 0.997
[12]; first compound 0.1265 µM
  relative viability: 0.966
[12]; first compound 0.4 µM
  relative viability: 0.942
[12]; first compound 1.265 µM
  relative viability: 0.794
[13]; first compound 0.04 µM
  relative viability: 1.11
[13]; first compound 0.1265 µM
  relative viability: 1.15
[13]; first compound 0.4 µM
  relative viability: 1
[13]; first compound 1.265 µM
  relative viability: 1.05
[14]; first compound 0.04 µM
  relative viability: 0.947
[14]; first compound 0.1265 µM
  relative viability: 0.949
[14]; first compound 0.4 µM
  relative viability: 1.07
[14]; first compound 1.265 µM
  relative viability: 0.849
[15]; first compound 0.04 µM
  relative viability: 0.908
[15]; first compound 0.1265 µM
  relative viability: 0.954
[15]; first compound 0.4 µM
  relative viability: 1.32
[15]; first compound 1.265 µM
  relative viability: 0.414
[16]; first compound 0.04 µM
  relative viability: 1.01
[16]; first compound 0.1265 µM
  relative viability: 0.732
[16]; first compound 0.4 µM
  relative viability: 0.997
[16]; first compound 1.265 µM
  relative viability: 0.924
[17]; first compound 0.04 µM
  relative viability: 0.788
[17]; first compound 0.1265 µM
  relative viability: 0.99
[17]; first compound 0.4 µM
  relative viability: 0.906
[17]; first compound 1.265 µM
  relative viability: 0.783
[18]; first compound 0.04 µM
  relative viability: 1.02
[18]; first compound 0.1265 µM
  relative viability: 1.16
[18]; first compound 0.4 µM
  relative viability: 1.02
[18]; first compound 1.265 µM
  relative viability: 1.04
[19]; first compound 0.04 µM
  relative viability: 1.05
[19]; first compound 0.1265 µM
  relative viability: 1.28
[19]; first compound 0.4 µM
  relative viability: 1.1
[19]; first compound 1.265 µM
  relative viability: 1.08
[20]; first compound 0.04 µM
  relative viability: 0.344
[20]; first compound 0.1265 µM
  relative viability: 0.391
[20]; first compound 0.4 µM
  relative viability: 0.335
[20]; first compound 1.265 µM
  relative viability: 0.195
[21]; first compound 0.04 µM
  relative viability: 1.18
[21]; first compound 0.1265 µM
  relative viability: 1.29
[21]; first compound 0.4 µM
  relative viability: 1.22
[21]; first compound 1.265 µM
  relative viability: 1.04
[22]; first compound 0.04 µM
  relative viability: 1.11
[22]; first compound 0.1265 µM
  relative viability: 1.09
[22]; first compound 0.4 µM
  relative viability: 0.99
[22]; first compound 1.265 µM
  relative viability: 0.722
